Experiments:
L1210 murine leukemia = settings: cited from earlier work
colon 38 tumor = settings: murine model colon 38 tumor; cited from earlier work
[1] = system: experimental allergic encephalomyelitis (EAE); settings: oral, from 10 days after inoculation; Teriflunomide 3 and 10 mg/kg, dexamethasone 1 mg/kg; cited from earlier work
DHODH [2] = target: T1, DHODH (Homo sapiens (Human), UniProt Q02127); settings: cited from earlier work
Target sequence in this assay (Q02127 whole entry, species assumed): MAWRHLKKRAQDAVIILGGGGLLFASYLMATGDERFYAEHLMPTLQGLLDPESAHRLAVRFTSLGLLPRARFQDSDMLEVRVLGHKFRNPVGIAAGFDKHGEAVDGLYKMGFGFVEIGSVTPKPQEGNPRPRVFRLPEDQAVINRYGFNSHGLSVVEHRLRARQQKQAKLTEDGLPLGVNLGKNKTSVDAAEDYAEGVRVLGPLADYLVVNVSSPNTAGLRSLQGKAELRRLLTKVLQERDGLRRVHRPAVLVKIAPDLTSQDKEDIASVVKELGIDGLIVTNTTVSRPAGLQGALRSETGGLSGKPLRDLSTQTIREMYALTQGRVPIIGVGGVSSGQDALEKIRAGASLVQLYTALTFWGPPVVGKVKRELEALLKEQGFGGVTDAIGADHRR

[3] = system: spleen colony-forming units (CFU); settings: cited from earlier work
[4] = system: multiple sclerosis with relapses; settings: once-daily oral 7 and 14 mg; cited from earlier work
DHODH [5] = target: T1, DHODH; assay: DHODH activity assay (coupled enzyme assay, DCIP reduction, absorbance at 610 nm); type: biochemical; settings: compound at 10 uM; read-out: inh @ 10 uM hDHODH (%)
Target sequence in this assay (Q02127 whole entry): as the sequence (Q02127 whole entry, species assumed) above

Jurkat cells = assay: Measurement of cell proliferation (Jurkat cell), XTT assay; type: cell-based; settings: Homo sapiens, Jurkat; compound at 1 uM; read-out: % inh Jurkat_cells @ 1 uM (%)
Procedure, shortened: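 Jurkat T cells, 100,000 per well in RPMI with 10% FBS, exposed 72 h at 37 °C to serial compound dilutions (typically from 10 μM, half-log steps, triplicate) at 0.25–0.5% DMSO. Viability by XTT/PMS, A465 after 2 h, media background subtracted, untreated cells as 100%; EC50 from curve fit.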

Row | inhibition at 10 µM (DHODH [5]) [%] | SMILES | onset of disease and symptom severity in EAE [1] | inhibition at 1 µM (Jurkat cells) [%] | also measured
1 |  | Cc1c(-c2ccc(-c3ccccc3F)cc2)nc2ccc(F)cc2c1C(=O)O [Brequinar, 6-Fluoro-2-(2′-fluoro[1,1′-biphenyl]-4-yl)-3-methyl-4-quinolinecarboxylic Acid] |  |  | anticancer activity towards L1210 murine leukemia (L1210 murine leukemia): exhibits an anticancer activity; potentiation of 5-fluorouracil antitumor activity (colon 38 tumor): potentiates 5-fluorouracil antitumor activity
2 |  | C[C@@H]1C[C@H]2[C@@H]3CCC4=CC(=O)C=C[C@]4(C)[C@@]3(F)[C@@H](O)C[C@]2(C)[C@@]1(O)C(=O)CO [dexamethasone] | significant delay in the onset of disease and in symptom severity |  | 
3 |  | C/C(O)=C(\C#N)C(=O)Nc1ccc(C(F)(F)F)cc1 [Teriflunomide] | significant delay in the onset of disease and in symptom severity |  | fold greater inhibitor of DHODH than of protein tyrosine kinase (DHODH [2]): 100-1,000 fold; CFU cycling [3]: inhibited CFU cycling; number of unique active lesions compared to placebo [4]: reduced number of unique active lesions
4 | 93.4 | O=C(O)c1cc(F)cc2nc(-c3ccc(-c4ccccc4)cc3F)[nH]c12 [Example 29, 6-Fluoro-2-(3-fluoro-biphenyl-4-yl)-3H-benzoimidazole-4-carboxylic acid] |  | 71.6 | 
5 | 63.9 | O=C(O)c1cccc2[nH]c(-c3ccc(-c4ccc(OCc5ccncc5)cc4)cc3)nc12 [I183] |  | 23.5 | 
